For assay [1], the target named is subtilisin. The note with it: inhibitor of subtilisin, read-out: inhibition constant (KI), cited from earlier work.
Assay [2] relates to subtilisin. Put plainly: Example 1: incubation of subtilisin with or without PBA at pH 7.5 and 37 degrees, activity measured after 1:500 dilution (succinyl-L-Ala-L-Ala-L-Pro-L-Phe-p-nitroanilide hydrolysis, 410 nm). It is filed as biochemical. The settings on record: pH 7.5, 37 degrees celsius, even in the presence of 10 mm EDTA. As for the experimental part: Enzyme activity was measured after a 1:500 dilution by following the hydrolysis of the substrate succinyl-L-Ala-L-Ala-L-Pro-L-Phe-P-nitroanilide. The reaction was monitored by following the release of p-nitroaniline spectrophotometrically at 410 nm. One unit of activity is defined as the amount of enzyme that produces A410/min of 1.0 at 25'C. in 0.1M Tris pH 8.6, […] substrate.

The values that follow come from patent publication US5039446A, “Liquid detergent with stabilized enzyme” (Genencor International, Inc., priority 1990, dated 1991).

Like-named read-outs stand apart in the source and are kept apart here.

In the case of `CCCCB(O)O` [butane boronic acid], the inhibition constant (Ki) on subtilisin [1] was 7200 µM.
On to `CC(=O)N[C@@H](CC(C)C)C(=O)N[C@@H](CC(C)C)C(=O)N[C@H](C=O)CCCNC(=N)N` [leupeptin], for which the Ki is 230 µM at subtilisin [1] (listed as Leupeptin) and 160 µM on subtilisin [1].
Consider `OB(O)c1ccccc1` [phenylboronic acid], for which the “stabilization of subtilisin (in words)” value in the assay on subtilisin [2] is recorded as “very effective agent for stabilization of subtilisin”. Moreover, the values for the inhibition constant Ki at subtilisin [1] (listed as Phenyl boronic acid) and at subtilisin [1] were 160 µM and 230 µM, respectively.

Broadly, the Ki is the dissociation constant of the complex between target and ligand, obtained from inhibition or displacement.
